Reference: patent US4269831A, “Topical dermatological method of use of an androstenopyrazole” (priority 1979, dated 1981)

How the values were obtained:
[1] = test system: androgen-stimulated flank organ; experiment: Related experiment: androgen-stimulated flank organ in mature female and castrated immature male hamsters; assay type: in vivo; conditions: 5 to 25 micrograms per flank organ
From the text: As shown by Table I the diameters and the wet weights of the flank organs were reduced at a dose of 5 micrograms per flank organ per day.

[2] = test system: flank organ of mature male Syrian golden hamsters; experiment: Topical antiandrogenic activity in mature male hamsters, both flank organs medicated (Table I); assay type: in vivo; conditions: mean, n=8
From the text: Each flank organ of mature male Syrian golden hamsters having a mean initial body weight of 105 g. was medicated topically with the compound of Formula I dissolved in ethanol (5 microliters) for twenty-one days. Flank organ hair was clipped three times per week to facilitate application. On the day following the last medication the hamsters were killed with an overdose of sodium pentobarbital. The flank organ parameters and the weights of seminal vesicles, adrenals and thymus glands were determined. Flank organ diameter was measured parallel to the breadth of the hamster with vernier calipers. Wet weights were obtained on flank organs excised around the periphery of the pigmented area. The topical activity of the compound of Formula I was also compared with that of 17β-hydroxy-17α-propylandrost-4-en-3-one, an antiandrogen, and hydrocortisone. In this experiment the right flank organ was treated with the test compound while vehicle-treated left flank organ served as control. […] In addition, the individual characteristics of the flank organ, elevation (thickness relative to adjacent skin), area, hair pigment, skin pigment and hair growth were all scored separately on a scale of 0 to 4.

[3] = test system: adrenalectomized Sprague-Dawley rats; experiment: Systemic glucocorticoid activity in the adrenalectomized rat, oral; assay type: in vivo; parameters: Liver glycogen: unit not given here; conditions: five consecutive days; for Liver glycogen: control 1.82±0.03; for Thymus weights: control 638±50
Procedure: A solution of the compound of Formula I in ethanolcottonseed oil (1:9, v/v) was administered orally to adrenalectomized Sprague-Dawley rats having a mean initial body weight of 188 g. (10 rats per group) for five consecutive days. Adrenalectomized rats receiving vehicle alone served as controls. Seven hours after the final medication the rats were killed and the thymus glands were excised and weighed. A portion of the liver was excised, frozen and digested in hot aqueous potassium hydroxide (30%). Liver glycogen was then determined. In this test the compound of Formula I caused thymolysis and liver glycogen deposition. The thymus weights at doses of 10 and 30 mg./kg. were 359±31 and 167±20 mg., respectively,in the medicated rats compared with 638±50 mg. in the control rats.

[4] = test system: hair growth on backs of male adrenalectomized Sprague-Dawley rats; experiment: Reduction in hair growth in male adrenalectomized rats, topical (Table VII); assay type: in vivo; conditions: 0.1% solution topical
From the text: Hair was clipped from the backs of male Sprague-Dawley rats, having a mean body weight of 300 g., three weeks after adrenalectomy. The clipped area (4 cm.×4 cm.) was medicated with approximately 500 microliters of 0.1% solution of the compound of Formula I, or hydrocortisone or 500 microliters of ethanol alone for a two-week pretreatment period. The clipped area was then depilated and the medication with either solution or ethanol alone was continued for 4 weeks. The density of hair growth was scored visually at weekly intervals and at termination of the experiment on a scale of 0 to 4 (0, no hair growth; 4, complete hair regrowth). Skinfold thickness was also measured using a micrometer at the end of the experiment, which was conducted blind.

[5] = test system: male hamster flank organ hair; experiment: Rate of flank organ hair growth by 35S-cystine pulse labelling (Table V); assay type: in vivo, Syrian golden hamsters; conditions: right flank organ, 5 microliters 0.1% solution daily for 14 days; mean ± SE, n=8
Procedure: In a second test all hair was clipped from the flank organs of 8 male Syrian golden hamsters having a mean body weight of 116 g. on the first day of the study. The hamsters were medicated daily with 5 microliters of ethanol on the left flank organ and 5 microliters of a 0.1% solution of the compound of Formula I in ethanol on the right flank organ for 14 consecutive days. On days 4, 8 and 12 each hamster was injected subcutaneously with 30 microcuries of ^35 S-cystine (0.72 nmole) dissolved in ethanol-saline (0.1 ml., 1:9, v/v). On day 15 several hairs were plucked from each flank organ. The hairs were exposed to X-ray film for 4 weeks. The distances between the radioactive sites and the hair resulting from the three pulses of ^35 S-cystine were measured and the daily rate of hair-growth was determined. As shown by Table V the rate of hair growth was reduced after 12 days of treatment.

[6] = 1 μg/flank organ/day topical for 21 days
[7] = 5 μg/flank organ/day topical for 21 days
[8] = 25 μg/flank organ/day topical for 21 days
[9] = 125 μg/flank organ/day topical for 21 days
[10] = after depilation, median score, scale 0 to 4, n=12

CC#C[C@]1(O)CC[C@H]2[C@@H]3C[C@H](C)C4=Cc5[nH]ncc5C[C@]4(C)[C@H]3CC[C@@]21C [Compound of Formula I, 17β-Hydroxy-6α-methyl-17α-propynyl-4-androsteno[3,2-c]-pyrazole]
Inhibition of androgen-stimulated flank organ parameters [1]: effective inhibitor of androgen-stimulated flank organ parameters
Systemic effects [1]: without any systemic effects
Flank Organ Diameter [2, 6]: 5.7 mm
Flank Organ Wet Weight [2, 6]: 46.5 mg
Organ Weights: Adrenal [2, 6]: 26.7 mg
Organ Weights: Seminal Vesicles [2, 6]: 288.3 mg
Organ Weights: Thymus [2, 6]: 57.1 mg
Flank Organ Diameter [2, 7]: 4.8 mm
Flank Organ Wet Weight [2, 7]: 36.4 mg
Organ Weights: Adrenal [2, 7]: 25.5 mg
Organ Weights: Seminal Vesicles [2, 7]: 277.6 mg
Organ Weights: Thymus [2, 7]: 53.2 mg
Flank Organ Diameter [2, 8]: 4.7 mm
Flank Organ Wet Weight [2, 8]: 33.4 mg
Organ Weights: Adrenal [2, 8]: 25.5 mg
Organ Weights: Seminal Vesicles [2, 8]: 270.3 mg
Organ Weights: Thymus [2, 8]: 53.7 mg
Flank Organ Diameter [2, 9]: 4.8 mm
Flank Organ Wet Weight [2, 9]: 30.7 mg
Organ Weights: Adrenal [2, 9]: 21.0 mg
Organ Weights: Seminal Vesicles [2, 9]: 267.3 mg
Organ Weights: Thymus [2, 9]: 52.8 mg
Liver glycogen ([3]; 10 mg./kg. oral): 5.7±1.1
Thymus weights ([3]; 10 mg./kg. oral): 359 ± 31 mg
Liver glycogen ([3]; 30 mg./kg. oral): 10.9±1.2
Thymus weights ([3]; 30 mg./kg. oral): 167 ± 20 mg
Hair Growth Score, Treatment week 1 [4, 10]: 0
Hair Growth Score, Treatment week 2 [4, 10]: 0
Hair Growth Score, Treatment week 3 [4, 10]: .5
Hair Growth Score, Treatment week 4 [4, 10]: 1
Skinfold Thickness, Treatment week 4 ([4]; mean, n=12, vehicle 2.51): 1.82 mm
Hair Growth Score, Pretreatment week 1 ([4]; median score, scale 0 to 4 (0 no hair growth, 4 complete regrowth), n=12): 1
Hair Growth Score, Pretreatment week 2 ([4]; median score, scale 0 to 4, n=12): 2.5
Skin thickness compared with hydrocortisone-treated rats ([4]; p<0.02): thinner
Rate of Hair Growth, First Interval (Day 4-8) [5]: .504 ± .014 mm/day
Rate of Hair Growth, Second Interval (Day 9-12) [5]: .566 ± .014 mm/day
